The record followed here is US9586951B2 (FUJIFILM Corporation, priority 2013, dated 2017).

One experiment concerns the target T1, ATM (Homo sapiens, UniProt Q13315).
T1 construct: detecting phosphorylation of Chk2 in a human non-small cell lung cancer cell line NCI-H460 (ATCC company); host or cells: NCI-H460 human non-small cell lung cancer cells
The experiment can be described thus: ATM inhibition test (phosphorylation of Chk2 generated by ionizing radiation, AlphaScreen SureFire). In kind it is cell-based. The following applies: phosphorylated Chk2 in NCI-H460 cells, ionizing radiation 8Gy, 1 hour after test compound treatment; read-out: ATM inhibitory activity. Summed up: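 Human NCI-H460 lung cancer cells were treated with compound for 1 h, then irradiated at 8Gy and incubated 1 h at 37° C. Phospho-Chk2 was quantified by AlphaScreen SureFire; inhibition % was normalised between irradiated untreated and non-irradiated untreated wells.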
In general terms: Bead proximity is the source of the signal in Alpha formats.

Experiment [1] has as its system human non-small cell lung cancer cell line NCI-H460. The experiment can be described thus: Cell proliferation inhibition test by sensitivity-enhancing to ionizing radiation (Cell Titer Glo). In kind it is cell-based. The settings on record: concentration in which SER became 2, NCI-H460 cells, ionizing radiation 2 Gy, cultured 120 hour. On the procedure: A human non-small cell lung cancer cell line NCI-H460 (ATCC company) was adjusted so as to be 2×10^3 cells/mL in a RPMI-1640 medium containing penicillin/streptomycin and FBS having a final concentration of 10%, and this was seeded by 100 μL per well in 96-well CellBIND® plates (Corning International Inc.). After 24 hours, the medium of cells was replaced with 100 μL of a medium including serially diluted liquid of the test compound or DMSO having a final concentration of 0.1%. 30 minutes after the medium was replaced, half of the plates were irradiated with ionizing radiation 2 Gy (Faxitron Bioptics, LLC, RX-650 type). The cells of the plates irradiated with ionizing radiation and the plates not being irradiated with ionizing radiation were cultured at 37° C. for 120 hour in 5% CO2. After a Cell Titer Glo reaction liquid of an equal volume was added to each well, the amount of luminescence was measured, according to the instruction book of Cell Titer Glo (Promega Corporation). Since the amount of luminescence is proportional to the ATP concentration in cells, the amount of luminescence was used as an indicator of the number of viable cells. Sensitivity-enhancing effects (SER) to ionizing radiation by the test compound was calculated by the following equation. SER=(amount of luminescence of wells including DMSO having a final concentration of 0.1% in the plates irradiated with ionizing radiation×amount of luminescence of wells including a compound in the plates not being irradiated with ionizing radiation)/(amount of luminescence of wells including the test compound in the plates irradiated with ionizing radiation×amount of luminescence of wells including DMSO having a final concentration of 0.1% in the plates not being irradiated with ionizing radiation)
SER at each compound concentration was plotted by nonlinear regression fit (FitModel (205)) by a sigmoidal dose-response equation using XLfit software (IDBS), and the concentration (SER2) in which SER became 2 was calculated.

A value given as a limit tells only on which side of the number the result lay.

T1 sequence (Q13315 whole entry): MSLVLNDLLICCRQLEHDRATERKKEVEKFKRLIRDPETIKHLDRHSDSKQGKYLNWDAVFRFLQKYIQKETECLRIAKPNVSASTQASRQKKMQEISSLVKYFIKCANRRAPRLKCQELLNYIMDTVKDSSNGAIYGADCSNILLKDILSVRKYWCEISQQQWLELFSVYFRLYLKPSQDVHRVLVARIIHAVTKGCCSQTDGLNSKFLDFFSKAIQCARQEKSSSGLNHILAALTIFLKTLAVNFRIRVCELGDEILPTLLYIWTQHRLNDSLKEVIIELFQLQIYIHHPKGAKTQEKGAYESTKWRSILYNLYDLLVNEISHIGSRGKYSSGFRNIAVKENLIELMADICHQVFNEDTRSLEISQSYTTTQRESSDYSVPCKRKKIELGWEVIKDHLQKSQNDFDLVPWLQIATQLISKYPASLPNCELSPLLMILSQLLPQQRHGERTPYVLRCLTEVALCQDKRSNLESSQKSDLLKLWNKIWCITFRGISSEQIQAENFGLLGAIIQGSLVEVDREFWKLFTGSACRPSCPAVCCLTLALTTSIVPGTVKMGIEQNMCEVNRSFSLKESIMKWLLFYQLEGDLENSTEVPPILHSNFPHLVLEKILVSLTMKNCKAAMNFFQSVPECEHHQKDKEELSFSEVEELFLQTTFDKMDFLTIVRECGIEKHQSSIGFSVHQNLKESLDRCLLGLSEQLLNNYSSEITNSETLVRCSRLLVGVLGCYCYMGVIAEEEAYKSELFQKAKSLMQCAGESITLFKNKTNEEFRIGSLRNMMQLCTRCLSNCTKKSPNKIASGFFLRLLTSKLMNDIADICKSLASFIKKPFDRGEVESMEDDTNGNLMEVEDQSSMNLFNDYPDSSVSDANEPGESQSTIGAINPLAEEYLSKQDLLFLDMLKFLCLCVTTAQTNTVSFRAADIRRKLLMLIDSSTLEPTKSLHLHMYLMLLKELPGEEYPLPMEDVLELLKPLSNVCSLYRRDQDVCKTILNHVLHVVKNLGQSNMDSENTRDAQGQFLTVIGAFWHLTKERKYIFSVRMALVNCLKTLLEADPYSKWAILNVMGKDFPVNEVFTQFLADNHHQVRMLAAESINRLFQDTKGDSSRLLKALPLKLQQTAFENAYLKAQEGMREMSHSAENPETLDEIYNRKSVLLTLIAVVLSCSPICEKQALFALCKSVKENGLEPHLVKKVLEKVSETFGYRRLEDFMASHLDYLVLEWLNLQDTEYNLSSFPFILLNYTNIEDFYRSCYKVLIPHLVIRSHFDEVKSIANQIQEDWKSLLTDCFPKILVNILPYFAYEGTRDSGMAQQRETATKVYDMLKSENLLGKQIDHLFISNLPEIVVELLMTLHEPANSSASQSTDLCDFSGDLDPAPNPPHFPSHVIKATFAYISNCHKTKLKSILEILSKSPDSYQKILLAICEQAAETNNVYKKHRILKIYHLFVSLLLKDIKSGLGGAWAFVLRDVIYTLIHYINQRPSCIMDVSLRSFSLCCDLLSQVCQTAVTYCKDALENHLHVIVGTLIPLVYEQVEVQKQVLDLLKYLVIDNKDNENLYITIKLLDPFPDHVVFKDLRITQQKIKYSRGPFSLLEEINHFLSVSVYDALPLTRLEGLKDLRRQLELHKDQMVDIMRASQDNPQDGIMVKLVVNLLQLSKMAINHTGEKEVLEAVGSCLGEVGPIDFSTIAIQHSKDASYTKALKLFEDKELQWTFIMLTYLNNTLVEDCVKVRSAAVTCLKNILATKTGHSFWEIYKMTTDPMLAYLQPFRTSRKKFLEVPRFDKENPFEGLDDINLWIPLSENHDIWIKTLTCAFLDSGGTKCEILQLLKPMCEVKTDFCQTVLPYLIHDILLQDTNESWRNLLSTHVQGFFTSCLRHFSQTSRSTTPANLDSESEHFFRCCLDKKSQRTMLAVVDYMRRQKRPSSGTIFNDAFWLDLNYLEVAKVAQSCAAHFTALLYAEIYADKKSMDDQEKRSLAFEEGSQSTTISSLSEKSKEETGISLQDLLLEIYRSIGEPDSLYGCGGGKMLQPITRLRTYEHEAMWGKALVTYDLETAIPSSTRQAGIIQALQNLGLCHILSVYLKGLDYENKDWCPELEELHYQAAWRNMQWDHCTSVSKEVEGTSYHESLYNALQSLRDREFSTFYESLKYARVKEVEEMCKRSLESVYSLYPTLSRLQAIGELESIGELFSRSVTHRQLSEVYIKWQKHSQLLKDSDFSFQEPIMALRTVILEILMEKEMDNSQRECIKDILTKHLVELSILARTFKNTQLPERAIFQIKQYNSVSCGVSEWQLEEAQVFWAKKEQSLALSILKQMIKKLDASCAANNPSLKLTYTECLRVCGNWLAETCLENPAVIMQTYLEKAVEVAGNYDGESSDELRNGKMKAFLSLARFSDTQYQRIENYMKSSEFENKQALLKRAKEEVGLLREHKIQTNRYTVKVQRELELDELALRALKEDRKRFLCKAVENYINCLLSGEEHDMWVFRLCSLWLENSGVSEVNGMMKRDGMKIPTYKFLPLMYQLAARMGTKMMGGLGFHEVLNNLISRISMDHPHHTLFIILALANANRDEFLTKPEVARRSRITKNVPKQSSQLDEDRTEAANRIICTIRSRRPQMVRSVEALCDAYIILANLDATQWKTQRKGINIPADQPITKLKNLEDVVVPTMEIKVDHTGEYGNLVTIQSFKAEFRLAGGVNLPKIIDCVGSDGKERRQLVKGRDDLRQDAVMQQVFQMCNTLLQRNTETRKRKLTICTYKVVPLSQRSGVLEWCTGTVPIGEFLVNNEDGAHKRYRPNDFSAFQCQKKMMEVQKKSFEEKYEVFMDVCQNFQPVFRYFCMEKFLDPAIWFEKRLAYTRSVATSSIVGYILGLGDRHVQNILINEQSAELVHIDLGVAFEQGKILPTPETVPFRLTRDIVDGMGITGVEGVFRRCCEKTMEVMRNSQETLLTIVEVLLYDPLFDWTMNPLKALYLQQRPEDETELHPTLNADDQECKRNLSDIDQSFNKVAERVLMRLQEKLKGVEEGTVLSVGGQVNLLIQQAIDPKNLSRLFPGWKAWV

Turning to `O=c1cc(N2CCOCC2)cc(-c2cccc3c2Oc2ccc(NCc4cc(Cl)ccn4)cc2C3)[nH]1` [Example 2-2-64, 6-(7-(((4-Chloropyridin-2-yl)methyl)amino)-9H-xanthen-4-yl)-4-morpholino pyridin-2(1H)-one], the IC50 on ATM is below 100 nM. Also, the SER2 (concentration at which the radiation sensitivity-enhancement ratio reaches 2) in experiment [1] (Homo sapiens, NCI-H460, 120 h) lay within 100 to 500 nM.

For the compound `O=c1cc(N2CCOCC2)cc(-c2cccc3c2Oc2ccc(NCc4ccnc(Cl)c4)cc2C3)[nH]1` [Example 2-2-52, 6-(7-(((2-Chloropyridin-4-yl)methyl)amino)-9H-xanthen-4-yl)-4-morpholino pyridin-2 (1H)-one], the IC50 on ATM was below 100 nM. The SER2 (concentration at which the radiation sensitivity-enhancement ratio reaches 2) in experiment [1] (Homo sapiens, NCI-H460, 120 h) fell in the range of 500 to 2000 nM.

Turning to `Cc1cccc(CNc2ccc3c(c2)Sc2cccc(-c4cc(N5CCOCC5)cc(=O)[nH]4)c2S3)n1` [Example 1-12-2, 6-(7-(((6-Methylpyridin-2-yl)methyl)amino)thianthren-1-yl)-4-1-morpholino pyridin-2 (1H)-one], at ATM, the IC50 was below 100 nM. In addition, the SER2 (concentration at which the radiation sensitivity-enhancement ratio reaches 2) in experiment [1] (Homo sapiens, NCI-H460, 120 h) is below 100 nM.

For the compound `COc1ccnc(C(C)Nc2ccc3c(c2)Cc2cccc(-c4cc(N5CCOCC5)cc(=O)[nH]4)c2O3)c1` (stereo not shown) [Example 2-14-20, 6-(7-((1-(4-Methoxypyridin-2-yl)ethyl)amino)-9H-xanthen-4-yl)-4-morpholino pyridin-2(1H)-one], on ATM, the IC50 was below 100 nM. Besides, the SER2 (concentration at which the radiation sensitivity-enhancement ratio reaches 2) in experiment [1] (Homo sapiens, NCI-H460, 120 h) was below 100 nM.

Turning to `COC[C@H](CN1CCC(C(F)(F)F)CC1)Nc1ccc2c(c1)Sc1cccc(-c3cc(N4CCOCC4)cc(=O)[nH]3)c1S2` [Example 1-46-8, (S)-6-(7-((1-Methoxy-3-(4-(trifluoromethyl)piperidin-1-yl)propan-2-yl)amino)thianthren-1-yl)-4-morpholino pyridin-2(1H)-one], the IC50 on ATM is below 100 nM. Besides, the SER2 (concentration at which the radiation sensitivity-enhancement ratio reaches 2) in experiment [1] (Homo sapiens, NCI-H460, 120 h) fell in the range of 100 to 500 nM.

`Cc1cccc(C(C)Nc2ccc3c(c2)Sc2cccc(-c4cc(N5CCOCC5)cc(=O)[nH]4)c2S3)n1` (single isomer, unassigned) [Example 1-12-136-2, 6-(7-((1-(6-methylpyridin-2-yl)ethyl)amino)thianthren-1-yl)-4-morpholinopyridin-2(1H)-one]: at ATM, the IC50 is below 100 nM. In experiment [1], the SER2 (concentration at which the radiation sensitivity-enhancement ratio reaches 2) lay in the range of 100 to 500 nM.

As to `CCOc1ccnc(CNc2ccc3c(c2)Cc2cccc(-c4cc(N5CCOCC5)cc(=O)[nH]4)c2O3)c1` [Example 2-13-11, 6-(7-(((4-Ethoxypyridin-2-yl)methyl)amino)-9H-xanthen-4-yl)-4-morpholino pyridin-2(1H)-one], at ATM, the IC50 was below 100 nM. For the same compound, the SER2 (concentration at which the radiation sensitivity-enhancement ratio reaches 2) in experiment [1] (Homo sapiens, NCI-H460, 120 h) lay in the range of 100 to 500 nM.

In the case of `Cc1cccc(C(Nc2ccc3c(c2)Sc2cccc(-c4cc(N5CCOCC5)cc(=O)[nH]4)c2S3)C2CCCN(C)C2)n1` (single isomer, unassigned) [Example 1-22-5, 6-(7-(((1-Methylpiperidin-3-yl)(6-methylpyridin-2-yl)methyl)amino)thianthren-1-yl)-4-morpholino pyridin-2 (1H)-one], the IC50 on ATM is below 100 nM. Also, the SER2 (concentration at which the radiation sensitivity-enhancement ratio reaches 2) in experiment [1] lay within 100 to 500 nM.

With `CC(CN1CCCCC1)Nc1ccc2c(c1)Sc1cccc(-c3cc(N4CCOCC4)cc(=O)[nH]3)c1S2` (stereo not shown) [Example 1-13-4], the IC50 at ATM is below 100 nM. The SER2 (concentration at which the radiation sensitivity-enhancement ratio reaches 2) in experiment [1] (Homo sapiens, NCI-H460, 120 h) fell in the range of 100 to 500 nM.

In the case of `Cc1cccc(C(Nc2ccc3c(c2)Sc2cccc(-c4cc(N5CCOCC5)cc(=O)[nH]4)c2S3)C2CCN(C)C2)n1` (single isomer, unassigned) [Example 1-22-6, 6-(7-(((6-Methylpyridin-2-yl)(1-methylpyrrolidin-3-yl)methyl)amino)thianthren-1-yl)-4-morpholino pyridin-2 (1H)-one], the IC50 on ATM was below 100 nM. Besides, in experiment [1] (Homo sapiens, NCI-H460, 120 h), the SER2 (concentration at which the radiation sensitivity-enhancement ratio reaches 2) is below 100 nM.

For `O=c1cc(N2CCOCC2)cc(-c2cccc3c2Oc2ccc(NCc4cc(C5CC5)ccn4)cc2C3)[nH]1` [Example 2-13-10, 6-(7-(((4-Cyclopropylpyridin-2-yl)methyl)amino)-9H-xanthen-4-yl)-4-morpholino pyridin-2(1H)-one], the IC50 on ATM was below 100 nM. Besides, the SER2 (concentration at which the radiation sensitivity-enhancement ratio reaches 2) in experiment [1] (Homo sapiens, NCI-H460, 120 h) is 100 to 500 nM.

On to `O=c1cc(N2CCOCC2)cc(-c2cccc3c2Oc2ccc(NCc4cncc(Cl)n4)cc2C3)[nH]1` [Example 2-13-1, 6-(7-(((6-chloropyrazin-2-yl)methyl)amino)-9H-xanthen-4-yl)-4-morpholinopyridin-2(1H)-one], for which the IC50 at ATM was 100 to 500 nM. Besides, the SER2 (concentration at which the radiation sensitivity-enhancement ratio reaches 2) in experiment [1] (Homo sapiens, NCI-H460, 120 h) is 500 to 2000 nM.

Take `O=c1cc(N2CCOCC2)cc(-c2cccc3c2Oc2ccc(NCc4cc(-c5cccnc5)ccn4)cc2C3)[nH]1` [Example 2-2-72]: the IC50 on ATM is below 100 nM; in experiment [1] (Homo sapiens, NCI-H460, 120 h, read-out: SER2) it was 100 to 500 nM.

As to `Cc1cccc(C(CO)Nc2ccc3c(c2)Sc2cccc(-c4cc(N5CCOCC5)cc(=O)[nH]4)c2S3)n1` (single isomer, unassigned) [Example 1-12-140-2, 6-(7-((2-hydroxy-1-(6-methylpyridin-2-yl)ethyl)amino)thianthren-1-yl)-4-morpholinopyridin-2(1H)-one], the IC50 at ATM was below 100 nM. The SER2 (concentration at which the radiation sensitivity-enhancement ratio reaches 2) in experiment [1] (Homo sapiens, NCI-H460, 120 h) was below 100 nM.

Consider `CN(C)c1cnc(CNc2ccc3c(c2)Cc2cccc(-c4cc(N5CCOCC5)cc(=O)[nH]4)c2O3)cn1` [Example 2-2-37], for which the IC50 at ATM was below 100 nM. Also, the SER2 (concentration at which the radiation sensitivity-enhancement ratio reaches 2) in experiment [1] (Homo sapiens, NCI-H460, 120 h) lay in the range of 500 to 2000 nM.

For `O=c1cc(N2CCOCC2)cc(-c2cccc3c2Sc2ccc(NCCN4C5CCC4COC5)cc2S3)[nH]1` [Example 1-10-5, 6-(7-((2-(3-oxa-8-azabicyclo[3.2.1]octan-8-yl)ethyl)amino)thianthren-1-yl)-4-morpholinopyridin-2(1H)-one], the IC50 on ATM is below 100 nM. Besides, the SER2 (concentration at which the radiation sensitivity-enhancement ratio reaches 2) in experiment [1] (Homo sapiens, NCI-H460, 120 h) lay in the range of 100 to 500 nM.

As to `O=c1cc(N2CCOCC2)cc(-c2cccc3c2Oc2ccc(NCc4cncc(Br)c4)cc2S3)[nH]1` [Example 4-8-22, 6-(8-(((5-Bromopyridin-3-yl)methyl)amino)phenoxathiin-4-yl)-4-morpholino pyridin-2(1H)-one], at ATM, the IC50 is below 100 nM. The SER2 (concentration at which the radiation sensitivity-enhancement ratio reaches 2) in experiment [1] (Homo sapiens, NCI-H460, 120 h) is 100 to 500 nM.

For `Cc1nccc(C(C)Nc2ccc3c(c2)Cc2cccc(-c4cc(N5CCOCC5)cc(=O)[nH]4)c2O3)n1` (stereo not shown) [Example 2-14-48, 6-(7-((1-(2-Methylpyrimidin-4-yl)ethyl)amino)-9H-xanthen-4-yl)-4-morpholino pyridin-2 (1H)-one], the IC50 on ATM is 100 to 500 nM.

As to `CC(C)(C)OC(=O)N1CCC(Nc2ccc3c(c2)Sc2cccc(-c4cc(N5CCOCC5)cc(=O)[nH]4)c2O3)CC1` [Example 4-8-3, tent-Butyl 4-((6-(4-morpholino-6-oxo-1,6-dihydropyridin-2-yl)phenoxathiin-2-yl)amino) piperidin-l-carboxylate], the IC50 on ATM lay within 100 to 500 nM.

For `CNc1ncc(C(C)Nc2ccc3c(c2)Cc2cccc(-c4cc(N5CCOCC5)cc(=O)[nH]4)c2O3)cn1` (stereo not shown) [Example 2-14-54, 6-(7-((1-(2-(Methylamino)pyrimidin-5-yl)ethyl)amino)-9H-xanthen-4-yl)-4-morpholino pyridin-2(1H)-one], the IC50 on ATM is 100 to 500 nM.

`CNCCC(Nc1ccc2c(c1)Sc1cccc(-c3cc(N4CCOCC4)cc(=O)[nH]3)c1S2)c1cnc(C)cn1` (stereo not shown) [Example 1-20-11, 6-(7-((3-(Methylamino)-1-(5-methylpyrazin-2-yl)propyl)amino)thianthren-1-yl)-4-morpholino pyridin-2 (1H)-one]: the IC50 on ATM is 500 to 2000 nM.

Take `CCN(CC)CC(Nc1ccc2c(c1)Sc1cccc(-c3cc(N4CCOCC4)cc(=O)[nH]3)c1S2)c1ncc(C)cn1` (stereo not shown) [Example 1-12-106, 6-(7-((2-(Diethylamino)-1-(5-methylpyrimidin-2-yl)ethyl)amino)thianthren-1-yl)-4-morpholino pyridin-2(1H)-one]: on ATM, the IC50 is 100 to 500 nM.

As for `O=c1cc(N2CCOCC2)cc(-c2cccc3c2Oc2ccc(NCc4ncccn4)cc2C3)[nH]1` [Example 2-3-4, 4-Morpholino-6-(7-((pyrimidin-2-ylmethyl)amino)-9H-xanthen-4-yl) pyridin-2(1H)-one], the IC50 on ATM fell in the range of 500 to 2000 nM.
